Patent US10323019B2, “Pyrazolylaminobenzimidazole derivatives as JAK inhibitors” (Eli Lilly and Company, priority 2016, dated 2019)

Target: JAK2 (Homo sapiens (Human), UniProt O60674)
Assay: Human whole blood assay: pSTAT5 (JAK2) in monocytes, GM-CSF stimulated
Assay type: cell-based
Settings: pSTAT5 in CD4Low CD33Hi monocytes
Text: Human Whole Blood Assays: Determination of pSTAT3 (JAK1) and pSTAT5 (JAK2) in Lymphocytes and Monocytes
Human whole blood (HWB) assays were developed and validated to determine the JAK1 and JAK2 selectivity of test compounds.
Dilute the test compounds, 10 points, (1:3) in DMSO 100% and a step down in PBS+0.1% BSA. Use Tofacitinib as a reference compound in each plate, as well as a maximum signal (stimulated wells) and a minimum signal (no stimulated wells) in order to normalize data. Obtain a pool of HWB from 4 different healthy donors. Plate the blood in a 96 well plate using a Tecan Evo 96w and incubate with test compounds for 1 h at RT. After this time of incubation, stimulate HWB with both IL6 (206-IL, R&D System) and GM-CSF (PHC2015, Life Technologies) for 15 more minutes. Add a viability dye (65-0865, eBiosicience) (1:1000) using a Tecan Evo 96w (5×mix).
The final concentrations in the assay are the following: 100 (μM for compounds, 50 μM for Tofacitinib, 0.1 μg/mL IL6, 0.038 μg/mL GM-CSF and 1% DMSO. Lyse and fix HWB using a Lyse/fix buffer (558049, Becton Dickinson) by adding 900 μL of lysis buffer using Tecan Evo 96w (mix 10× high speed). Incubate HWB in bath at 37° C. for 10 minutes. Centrifuge HWB at 500 G, 8 min and discard supernatant. Add cold MeOH using a Tecan Exo 96w in order to permeabilize cells. Incubate blood cells on ice during 30 min. After this, wash cells 2× using Staining buffer (554656, Becton Dickinson), spin at 3000 rpm, 2 min. discard supernatant, and add the following antibodies: Anti-Human CD4 PE, 1:100 (12-0048, eBioscience), Anti-Human CD33 eFluor® 450, 1:50 (48-0337, eBioscience), Phospho-STAT5 (Tyr694) (C71E5) Rabbit mAb, 1:100 (Alexa Fluor® 488 Conjugate) (3939, Cell Signaling) and Phospho-STAT3 (Tyr705) (D3A7) XP™ Rabbit mAb 1:200, (Alexa Fluor® 647 Conjugate) (4324, Cell Signaling). Incubate the antibodies for 1 h in dark at RT, then wash cells 2× and read on Cytometer Macsquant (Miltenyi Biotec). Gate the data on CD4+ (lymphocytes) and CD4Low CD33Hi (monocytes), to measure the fluorescence intensity from cells expressing pSTAT3 and pSTAT5, respectively. Analyze the data using FlowJo v 10 and then normalize the median of fluorescence versus maximum and minimum signal to determine the IC50s. Use Graph Pad Prism 5™ to represent the dose response curves.

Chain of JAK2 (O60674 whole entry): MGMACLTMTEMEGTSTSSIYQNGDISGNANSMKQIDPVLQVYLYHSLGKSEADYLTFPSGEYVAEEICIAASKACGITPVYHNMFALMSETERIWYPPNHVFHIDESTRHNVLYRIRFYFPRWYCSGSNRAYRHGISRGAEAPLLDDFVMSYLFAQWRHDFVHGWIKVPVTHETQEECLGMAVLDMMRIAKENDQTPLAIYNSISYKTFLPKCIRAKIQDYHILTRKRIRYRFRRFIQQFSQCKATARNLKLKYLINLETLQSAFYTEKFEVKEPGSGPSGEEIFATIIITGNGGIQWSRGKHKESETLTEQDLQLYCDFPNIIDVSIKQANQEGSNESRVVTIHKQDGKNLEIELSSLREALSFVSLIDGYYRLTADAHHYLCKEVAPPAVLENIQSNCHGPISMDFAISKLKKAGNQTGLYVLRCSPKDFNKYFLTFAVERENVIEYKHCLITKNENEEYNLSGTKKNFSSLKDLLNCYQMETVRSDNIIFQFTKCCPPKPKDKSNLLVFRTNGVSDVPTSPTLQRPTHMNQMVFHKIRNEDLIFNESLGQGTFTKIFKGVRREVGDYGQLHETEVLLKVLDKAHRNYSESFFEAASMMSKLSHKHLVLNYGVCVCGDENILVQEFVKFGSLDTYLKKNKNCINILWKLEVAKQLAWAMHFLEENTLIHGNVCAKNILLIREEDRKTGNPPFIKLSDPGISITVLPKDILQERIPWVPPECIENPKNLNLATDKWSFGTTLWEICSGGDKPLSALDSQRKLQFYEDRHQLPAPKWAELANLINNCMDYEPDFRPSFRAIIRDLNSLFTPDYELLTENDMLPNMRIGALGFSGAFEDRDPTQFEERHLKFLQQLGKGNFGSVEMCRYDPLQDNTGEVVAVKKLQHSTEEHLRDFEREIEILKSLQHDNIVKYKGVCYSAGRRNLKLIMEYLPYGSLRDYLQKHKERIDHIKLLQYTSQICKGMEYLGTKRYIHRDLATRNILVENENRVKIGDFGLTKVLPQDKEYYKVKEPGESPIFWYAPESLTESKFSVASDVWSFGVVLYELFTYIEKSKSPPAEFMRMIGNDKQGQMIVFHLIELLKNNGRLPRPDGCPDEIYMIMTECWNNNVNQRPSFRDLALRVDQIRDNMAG

`COc1cc(Nc2cc(O[C@H]3CC[C@@H](NC[C@@H](O)C(F)(F)F)CC3)cc3c2ncn3C)nn1C` [Example 6, (2R)-1,1,1-Trifluoro-3-{[cis-4-({4-[(5-methoxy-1-methyl-1H-pyrazol-3-yl)amino]-1-methyl-1H-benzimidazol-6-yl}oxy)cyclohexyl]amino}propan-2-ol] showed an IC50 of 20.3 ± 6.3 µM.
